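Exposure lasted 48 hours, with cells grown in 96-well plates and compounds tested at five concentrations. TGI is the concentration that stops growth completely.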
Key:
Experiment in all cases: DTP human tumour cell line panel, 48 h
RPMI-8226 leukemia = system: RPMI-8226 leukemia
SF-295 CNS = system: SF-295 CNS
U251 CNS = system: U251 CNS
UACC-257 melanoma = system: UACC-257 melanoma
SN12C renal = system: SN12C renal
NCI-H23 lung = system: NCI-H23 lung
HCT-116 colon = system: HCT-116 colon
HOP-62 NSCLC = system: HOP-62 NSCLC
HL-60(TB) leukemia = system: HL-60(TB) leukemia
HOP-92 NSCLC = system: HOP-92 NSCLC
KM12 colon = system: KM12 colon
SK-MEL-28 melanoma = system: SK-MEL-28 melanoma
KM20L2 colon = system: KM20L2 colon
DMS 114 small cell lung = system: DMS 114 small cell lung
MALME-3M melanoma = system: MALME-3M melanoma
NCI-H460 lung = system: NCI-H460 lung
M19-MEL melanoma = system: M19-MEL melanoma
A549 NSCLC = system: A549 NSCLC
SNB-75 CNS = system: SNB-75 CNS
NCI-H226 lung = system: NCI-H226 lung
OVCAR-5 ovarian = system: OVCAR-5 ovarian
NCI-H522 lung = system: NCI-H522 lung
OVCAR-8 ovarian = system: OVCAR-8 ovarian
MOLT-4 leukemia = system: MOLT-4 leukemia
CCRF-CEM leukemia = system: CCRF-CEM leukemia
OVCAR-3 ovarian = system: OVCAR-3 ovarian
SF-539 CNS = system: SF-539 CNS
SR leukemia = system: SR leukemia
DMS 273 small cell lung = system: DMS 273 small cell lung
SK-MEL-5 melanoma = system: SK-MEL-5 melanoma
TK-10 renal = system: TK-10 renal
SK-MEL-2 melanoma = system: SK-MEL-2 melanoma
IGROV1 ovarian = system: IGROV1 ovarian
A498 renal = system: A498 renal
HCT-15 colon = system: HCT-15 colon
LOX IMVI melanoma = system: LOX IMVI melanoma
SK-OV-3 ovarian = system: SK-OV-3 ovarian
ACHN renal = system: ACHN renal
UO-31 renal = system: UO-31 renal
LXFL 529 NSCLC = system: LXFL 529 NSCLC
HCC-2998 colon = system: HCC-2998 colon
M14 melanoma = system: M14 melanoma
DLD-1 colon = system: DLD-1 colon
OVCAR-4 ovarian = system: OVCAR-4 ovarian
SNB-78 CNS = system: SNB-78 CNS
786-0 renal = system: 786-0 renal
COLO 205 colon = system: COLO 205 colon
HT29 colon = system: HT29 colon
SF-268 CNS = system: SF-268 CNS
SW-620 colon = system: SW-620 colon
CAKI-1 renal = system: CAKI-1 renal
DU-145 prostate = system: DU-145 prostate
MDA-N = system: MDA-N
MDA-MB-231 breast = system: MDA-MB-231 breast
RXF 393 renal = system: RXF 393 renal
EKVX NSCLC = system: EKVX NSCLC
T-47D breast = system: T-47D breast
HS 578T breast = system: HS 578T breast
MCF7 breast = system: MCF7 breast
K-562 leukemia = system: K-562 leukemia
UACC-62 melanoma = system: UACC-62 melanoma
MDA-MB-435 = system: MDA-MB-435
SNB-19 CNS = system: SNB-19 CNS
NCI/ADR-RES ovarian = system: NCI/ADR-RES ovarian
BT-549 breast = system: BT-549 breast
PC-3 prostate = system: PC-3 prostate

`O=C(O)CSc1nnc(COc2ccccc2)n1-c1ccccc1` was tested, and the TGI (RPMI-8226 leukemia) was greater than 100 µM, the TGI (SF-295 CNS) was greater than 100 µM and the TGI (U251 CNS) was greater than 100 µM. For the same compound, the TGI (UACC-257 melanoma) was greater than 100 µM, the TGI (SN12C renal) was greater than 100 µM and the TGI (NCI-H23 lung) was greater than 100 µM. The TGI (HCT-116 colon) was greater than 100 µM, the TGI (HOP-62 NSCLC) was greater than 100 µM and the TGI (HL-60(TB) leukemia) was greater than 100 µM. For the same compound, the TGI (HOP-92 NSCLC) was greater than 100 µM, the TGI (KM12 colon) was greater than 100 µM and the TGI (SK-MEL-28 melanoma) was greater than 100 µM. The TGI (KM20L2 colon) was greater than 100 µM, the TGI (DMS 114 small cell lung) was greater than 100 µM and the TGI (MALME-3M melanoma) was greater than 100 µM. For the same compound, the TGI (NCI-H460 lung) was greater than 100 µM, the TGI (M19-MEL melanoma) was greater than 100 µM and the TGI (A549 NSCLC) was greater than 100 µM. The TGI (SNB-75 CNS) was greater than 100 µM, the TGI (NCI-H226 lung) was greater than 100 µM and the TGI (OVCAR-5 ovarian) was greater than 100 µM. For the same compound, the TGI (NCI-H522 lung) was greater than 100 µM, the TGI (OVCAR-8 ovarian) was greater than 100 µM and the TGI (MOLT-4 leukemia) was greater than 100 µM. For the same compound, the TGI (CCRF-CEM leukemia) was greater than 100 µM, the TGI (OVCAR-3 ovarian) was greater than 100 µM and the TGI (SF-539 CNS) was greater than 100 µM. The TGI (SR leukemia) was greater than 100 µM, the TGI (DMS 273 small cell lung) was greater than 100 µM and the TGI (SK-MEL-5 melanoma) was greater than 100 µM. For the same compound, the TGI (TK-10 renal) was greater than 100 µM, the TGI (SK-MEL-2 melanoma) was greater than 100 µM and the TGI (IGROV1 ovarian) was greater than 100 µM. For the same compound, the TGI (A498 renal) was greater than 100 µM, the TGI (HCT-15 colon) was greater than 100 µM and the TGI (LOX IMVI melanoma) was greater than 100 µM. For the same compound, the TGI (SK-OV-3 ovarian) was greater than 100 µM, the TGI (ACHN renal) was greater than 100 µM and the TGI (UO-31 renal) was greater than 100 µM. The TGI (LXFL 529 NSCLC) was greater than 100 µM, the TGI (HCC-2998 colon) was greater than 100 µM and the TGI (M14 melanoma) was greater than 100 µM. It also gave a TGI (DLD-1 colon) greater than 100 µM, a TGI (OVCAR-4 ovarian) greater than 100 µM and a TGI (SNB-78 CNS) greater than 100 µM. It also gave a TGI (786-0 renal) greater than 100 µM, a TGI (COLO 205 colon) greater than 100 µM and a TGI (HT29 colon) greater than 100 µM. It also gave a TGI (SF-268 CNS) greater than 100 µM.
`CCOC(=O)CCC1(C(=O)O[C@@H]2C[C@H](C)CC[C@H]2C(C)C)CCCCC1=O` (stereo partly specified) showed a TGI (RPMI-8226 leukemia) greater than 100 µM, a TGI (SF-295 CNS) greater than 100 µM and a TGI (U251 CNS) greater than 100 µM. For the same compound, the TGI (SW-620 colon) was greater than 100 µM, the TGI (UACC-257 melanoma) was 60 µM and the TGI (CAKI-1 renal) was greater than 100 µM. For the same compound, the TGI (DU-145 prostate) was greater than 100 µM, the TGI (SN12C renal) was greater than 100 µM and the TGI (NCI-H23 lung) was greater than 100 µM. It also gave a TGI (MDA-N) greater than 100 µM, a TGI (MDA-MB-231 breast) greater than 100 µM and a TGI (HCT-116 colon) greater than 100 µM. It also gave a TGI (HOP-62 NSCLC) greater than 100 µM, a TGI (HL-60(TB) leukemia) of 57.6 µM and a TGI (HOP-92 NSCLC) greater than 100 µM. It also gave a TGI (KM12 colon) greater than 100 µM, a TGI (SK-MEL-28 melanoma) greater than 100 µM and a TGI (RXF 393 renal) greater than 100 µM. For the same compound, the TGI (EKVX NSCLC) was greater than 100 µM, the TGI (T-47D breast) was greater than 100 µM and the TGI (HS 578T breast) was greater than 100 µM. For the same compound, the TGI (MCF7 breast) was greater than 100 µM, the TGI (MALME-3M melanoma) was greater than 100 µM and the TGI (NCI-H460 lung) was greater than 100 µM. The TGI (A549 NSCLC) was greater than 100 µM, the TGI (SNB-75 CNS) was greater than 100 µM and the TGI (K-562 leukemia) was greater than 100 µM. The TGI (NCI-H226 lung) was greater than 100 µM, the TGI (OVCAR-5 ovarian) was greater than 100 µM and the TGI (UACC-62 melanoma) was greater than 100 µM. It also gave a TGI (NCI-H522 lung) greater than 100 µM, a TGI (OVCAR-8 ovarian) greater than 100 µM and a TGI (MOLT-4 leukemia) greater than 100 µM. It also gave a TGI (CCRF-CEM leukemia) greater than 100 µM, a TGI (OVCAR-3 ovarian) greater than 100 µM and a TGI (SF-539 CNS) greater than 100 µM. The TGI (SR leukemia) was greater than 100 µM, the TGI (MDA-MB-435) was greater than 100 µM and the TGI (SNB-19 CNS) was greater than 100 µM. It also gave a TGI (SK-MEL-5 melanoma) greater than 100 µM, a TGI (TK-10 renal) greater than 100 µM and a TGI (SK-MEL-2 melanoma) greater than 100 µM. The TGI (NCI/ADR-RES ovarian) was greater than 100 µM, the TGI (IGROV1 ovarian) was greater than 100 µM and the TGI (A498 renal) was greater than 100 µM. The TGI (HCT-15 colon) was greater than 100 µM, the TGI (BT-549 breast) was greater than 100 µM and the TGI (LOX IMVI melanoma) was greater than 100 µM. The TGI (SK-OV-3 ovarian) was greater than 100 µM, the TGI (ACHN renal) was greater than 100 µM and the TGI (UO-31 renal) was greater than 100 µM. For the same compound, the TGI (M14 melanoma) was greater than 100 µM, the TGI (OVCAR-4 ovarian) was greater than 100 µM and the TGI (786-0 renal) was greater than 100 µM. For the same compound, the TGI (COLO 205 colon) was greater than 100 µM, the TGI (HT29 colon) was greater than 100 µM and the TGI (SF-268 CNS) was greater than 100 µM. It also gave a TGI (PC-3 prostate) greater than 100 µM.
`CC(C)(CO)Nc1c(O)c2c(c(O)c1Cl)C(=O)C=CC2=O` was tested, and the TGI (RPMI-8226 leukemia) was 4.82 µM, the TGI (SF-295 CNS) was 3.21 µM and the TGI (U251 CNS) was 3.11 µM. It also gave a TGI (SW-620 colon) of 1.37 µM, a TGI (UACC-257 melanoma) of 3.11 µM and a TGI (CAKI-1 renal) of 3.41 µM. It also gave a TGI (DU-145 prostate) of 3.35 µM, a TGI (SN12C renal) of 2.91 µM and a TGI (NCI-H23 lung) of 3.37 µM. For the same compound, the TGI (MDA-N) was 2.26 µM, the TGI (MDA-MB-231 breast) was 3.15 µM and the TGI (HCT-116 colon) was 3.07 µM. It also gave a TGI (HOP-62 NSCLC) of 2.95 µM, a TGI (HL-60(TB) leukemia) of 0.561 µM and a TGI (HOP-92 NSCLC) of 3.3 µM. The TGI (KM12 colon) was 2.78 µM, the TGI (SK-MEL-28 melanoma) was 3.32 µM and the TGI (RXF 393 renal) was 3.31 µM. For the same compound, the TGI (EKVX NSCLC) was 3.82 µM, the TGI (T-47D breast) was 4.18 µM and the TGI (HS 578T breast) was 3.41 µM. The TGI (MCF7 breast) was 2.65 µM, the TGI (MALME-3M melanoma) was 3.33 µM and the TGI (NCI-H460 lung) was 4.28 µM. For the same compound, the TGI (A549 NSCLC) was 3.61 µM, the TGI (SNB-75 CNS) was 2.6 µM and the TGI (K-562 leukemia) was 1.78 µM. The TGI (NCI-H226 lung) was 4.26 µM, the TGI (OVCAR-5 ovarian) was 3.02 µM and the TGI (UACC-62 melanoma) was 2.72 µM. The TGI (NCI-H522 lung) was 0.928 µM, the TGI (OVCAR-8 ovarian) was 2.71 µM and the TGI (MOLT-4 leukemia) was 3.3 µM. The TGI (CCRF-CEM leukemia) was 1.26 µM, the TGI (OVCAR-3 ovarian) was 2.9 µM and the TGI (SF-539 CNS) was 2.7 µM. It also gave a TGI (SR leukemia) of 0.782 µM, a TGI (MDA-MB-435) of 2.38 µM and a TGI (SNB-19 CNS) of 3.5 µM. The TGI (SK-MEL-5 melanoma) was 2.35 µM, the TGI (TK-10 renal) was 3.36 µM and the TGI (SK-MEL-2 melanoma) was 4.8 µM. For the same compound, the TGI (NCI/ADR-RES ovarian) was 3.65 µM, the TGI (IGROV1 ovarian) was 2.92 µM and the TGI (A498 renal) was 3.36 µM. The TGI (HCT-15 colon) was 2.22 µM, the TGI (BT-549 breast) was 2.24 µM and the TGI (LOX IMVI melanoma) was 1.19 µM. It also gave a TGI (SK-OV-3 ovarian) of 2.91 µM, a TGI (ACHN renal) of 3.08 µM and a TGI (UO-31 renal) of 2.88 µM. The TGI (HCC-2998 colon) was 2.75 µM, the TGI (M14 melanoma) was 2.26 µM and the TGI (OVCAR-4 ovarian) was 2.92 µM. It also gave a TGI (786-0 renal) of 2.85 µM, a TGI (COLO 205 colon) of 2.56 µM and a TGI (HT29 colon) of 3.4 µM. For the same compound, the TGI (SF-268 CNS) was 6.03 µM and the TGI (PC-3 prostate) was 3.41 µM.

From PubChem BioAssay (NCI)
